In patent publication US20080214808A1, “Preparation of Aseptic 3-[2-[4-((6-Fluoro-1,2-Benzisoxazol-3-Yl)-1-Piperidinyl]-6,7,8,9-Tetrahydro-9-Hydroxy-2-Methyl-4H-Pyrido[1,2-a]Pyrimidin-4-One Palmitate Ester” (priority 2005, published 2008):

Test: Gamma irradiation of compound (I) in different containers, amounts of (I) and breakdown products by HPLC
Format: physicochemical
Description: During pharmaceutical development, aseptic formulations of paliperidone palmitate (I) were initially obtained by gamma irradiation.
Compound (I) was irradiated with various doses of gamma rays in different containers.

[1] = Glass container, gamma dose 5 kGY
[2] = Glass container, gamma dose 10 kGY
[3] = Glass container, gamma dose 15 kGY
[4] = Glass container, gamma dose 20 kGY
[5] = Glass container, gamma dose 25 kGY
[6] = Glass container, gamma dose 30 kGY
[7] = Glass/metal container, gamma dose 5 kGY
[8] = Glass/metal container, gamma dose 10 kGY
[9] = Glass/metal container, gamma dose 15 kGY
[10] = Glass/metal container, gamma dose 20 kGY
[11] = Glass/metal container, gamma dose 25 kGY
[12] = Glass/metal container, gamma dose 30 kGY
[13] = Plastic container, gamma dose 15 kGY
[14] = Plastic container, gamma dose 20 kGY
[15] = Plastic container, gamma dose 25 kGY
[16] = gamma irradiation, maximum found

- amount of (I) [1]: 98.8%
- amount of breakdown product (III) [1]: 0.08%
- amount of breakdown products (II) [sum of (II-a) and (II-b)] [1]: 0.02%
- amount of (I) [2]: 98.7%
- amount of breakdown product (III) [2]: 0.15%
- amount of breakdown products (II) [sum of (II-a) and (II-b)] [2]: 0.05%
- amount of (I) [3]: 98.5%
- amount of breakdown product (III) [3]: 0.23%
- amount of breakdown products (II) [sum of (II-a) and (II-b)] [3]: 0.11%
- amount of (I) [4]: 98.3%
- amount of breakdown product (III) [4]: 0.34%
- amount of breakdown products (II) [sum of (II-a) and (II-b)] [4]: 0.17%
- amount of (I) [5]: 98.2%
- amount of breakdown product (III) [5]: 0.36%
- amount of breakdown products (II) [sum of (II-a) and (II-b)] [5]: 0.18%
- amount of (I) [6]: 98%
- amount of breakdown product (III) [6]: 0.46%
- amount of breakdown products (II) [sum of (II-a) and (II-b)] [6]: 0.24%
- amount of (I) [7]: 98.8%
- amount of breakdown product (III) [7]: 0.08%
- amount of breakdown products (II) [sum of (II-a) and (II-b)] [7]: 0.02%
- amount of (I) [8]: 98.9%
- amount of breakdown product (III) [8]: 0.1%
- amount of (I) [9]: 98.5%
- amount of breakdown product (III) [9]: 0.23%
- amount of breakdown products (II) [sum of (II-a) and (II-b)] [9]: 0.11%
- amount of (I) [10]: 98.4%
- amount of breakdown product (III) [10]: 0.29%
- amount of breakdown products (II) [sum of (II-a) and (II-b)] [10]: 0.15%
- amount of (I) [11]: 97.2%
- amount of breakdown product (III) [11]: 0.35%
- amount of breakdown products (II) [sum of (II-a) and (II-b)] [11]: 0.05%
- amount of (I) [12]: 98.2%
- amount of breakdown product (III) [12]: 0.45%
- amount of breakdown products (II) [sum of (II-a) and (II-b)] [12]: 0.21%
- amount of (I) [13]: 98.3%
- amount of breakdown product (III) [13]: 0.23%
- amount of breakdown products (II) [sum of (II-a) and (II-b)] [13]: 0.03%
- amount of (I) [14]: 97.9%
- amount of breakdown product (III) [14]: 0.29%
- amount of breakdown products (II) [sum of (II-a) and (II-b)] [14]: 0.03%
- amount of (I) [15]: 97.2%
- amount of breakdown product (III) [15]: 0.35%
- amount of breakdown products (II) [sum of (II-a) and (II-b)] [15]: 0.06%
- breakdown product (III) formed [16]: up to 0.46%
- breakdown products (II) [(II-a) and (II-b), co-eluting in HPLC] formed [16]: up to 0.24%
- amount of the breakdown products (II) and (III) versus gamma dose (various doses of gamma rays, different containers): increased dose-dependently
Compound: CCCCCCCCCCCCCCCC(=O)OC1CCCn2c1nc(C)c(CCN1CCC(c3noc4cc(F)ccc34)CC1)c2=O (centres unmarked) [(I), 3-[2-[4-(6-fluoro-1,2-benzisoxazol-3-yl)-1-piperidinyl]ethyl]-6,7,8,9-tetrahydro-9-hydroxy-2-methyl-4H-pyrido[1,2-a]pyrimidin-4-one palmitate ester]
